From patent publication US20260028326A1, “COMPOUND BASED ON ISOINDOLINE-SUBSTITUTED GLUTARIMIDE BACKBONE AND USE THEREOF” (GLUETACS THERAPEUTICS (SHANGHAI) CO., LTD., priority 2022, published 2026)
pIC50: −log10 of the molar value. Where “and” joins values, the source holds several entries; their conditions need not be identical. Equal values may be shown once.

Assays:
[1] = biological target: human Cereblon WT GST-tagged protein (Homo sapiens (Human), UniProt Q96SW2); assay: CRBN-binding affinity, HTRF (CEREBLON BINDING kit)
Summary of the method: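 HTRF competition readout: compounds compete with a thalidomide-Re conjugate for GST-tagged wild-type human CRBN detected via Eu-labelled anti-GST antibody. Inhibition rate derived relative to protein-free blank wells.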

IKZF1 protein = IKZF1 protein (Homo sapiens (Human), UniProt Q13422+Q96SW2); assay: Western-blot assay of substrate protein degradation in hPBMC, IKZF1; type: cell-based; conditions: for residual substrate protein level, IKZF1: hPBMC cells, compound 500 nM, 24 hours, Western blot
IKZF3 protein = IKZF3 protein (Homo sapiens (Human), UniProt Q96SW2+Q9UKT9); assay: Western-blot assay of substrate protein degradation in hPBMC, IKZF3; type: cell-based; conditions: for residual substrate protein level, IKZF3: hPBMC cells, compound 500 nM, 24 hours, Western blot
GSPT1 protein = GSPT1 protein (Homo sapiens (Human), UniProt P15170+Q96SW2); assay: Western-blot assay of substrate protein degradation in hPBMC, GSPT1; type: cell-based; conditions: for residual substrate protein level, GSPT1: hPBMC cells, compound 500 nM, 24 hours, Western blot
Mino cells = assay: Tumor cell proliferation IC50 (CCK-8), Mino; conditions: Homo sapiens, 72 h, read-out: IC50 for inhibiting the proliferation of tumor cells, Mino;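 further: cell viability assessed with CCK-8 reagent after compound exposure, IC50 derived from plotted growth inhibition curves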
MM.1S cells = assay: Tumor cell proliferation IC50 (CCK-8), MM.1S; conditions: Homo sapiens, MM1.S, 72 h, read-out: IC50 for inhibiting the proliferation of tumor cells, MM.1S;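 further: viability of cultured cells read by CCK-8 reagent after compound exposure, growth inhibition curves fitted to derive IC50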
[2] = hPBMC, 24 h, serially diluted 0.03-1000 nM

Chain of human Cereblon WT GST-tagged protein (Q96SW2 whole entry): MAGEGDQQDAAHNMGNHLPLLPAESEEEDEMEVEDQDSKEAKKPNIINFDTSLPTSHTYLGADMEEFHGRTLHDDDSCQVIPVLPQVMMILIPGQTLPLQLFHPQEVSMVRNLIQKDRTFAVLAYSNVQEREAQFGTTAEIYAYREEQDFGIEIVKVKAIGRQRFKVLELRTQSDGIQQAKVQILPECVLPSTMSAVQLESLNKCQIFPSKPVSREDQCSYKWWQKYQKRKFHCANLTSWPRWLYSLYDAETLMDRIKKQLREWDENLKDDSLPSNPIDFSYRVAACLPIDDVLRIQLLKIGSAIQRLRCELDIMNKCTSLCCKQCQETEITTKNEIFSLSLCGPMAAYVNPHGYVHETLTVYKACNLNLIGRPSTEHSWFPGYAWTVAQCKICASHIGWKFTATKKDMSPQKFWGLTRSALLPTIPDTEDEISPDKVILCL
Chain of IKZF1 protein (Q13422 whole entry): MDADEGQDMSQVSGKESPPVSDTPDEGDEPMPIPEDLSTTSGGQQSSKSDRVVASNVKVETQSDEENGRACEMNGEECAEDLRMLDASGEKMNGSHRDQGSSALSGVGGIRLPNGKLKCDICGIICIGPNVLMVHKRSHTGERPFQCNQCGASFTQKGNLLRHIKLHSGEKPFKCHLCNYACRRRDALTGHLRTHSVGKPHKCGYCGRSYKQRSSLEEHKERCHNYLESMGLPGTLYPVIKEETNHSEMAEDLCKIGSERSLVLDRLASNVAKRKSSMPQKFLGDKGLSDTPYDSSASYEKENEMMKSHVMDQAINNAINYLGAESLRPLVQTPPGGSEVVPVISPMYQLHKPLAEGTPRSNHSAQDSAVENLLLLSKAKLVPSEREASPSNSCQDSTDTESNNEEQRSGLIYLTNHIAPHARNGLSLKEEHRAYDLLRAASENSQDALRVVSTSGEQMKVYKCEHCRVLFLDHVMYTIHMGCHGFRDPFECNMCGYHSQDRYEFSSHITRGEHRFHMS
Chain of IKZF1 protein (Q96SW2 whole entry): as the sequence (Q96SW2 whole entry) above
Chain of IKZF1 protein (Q16531 whole entry partner): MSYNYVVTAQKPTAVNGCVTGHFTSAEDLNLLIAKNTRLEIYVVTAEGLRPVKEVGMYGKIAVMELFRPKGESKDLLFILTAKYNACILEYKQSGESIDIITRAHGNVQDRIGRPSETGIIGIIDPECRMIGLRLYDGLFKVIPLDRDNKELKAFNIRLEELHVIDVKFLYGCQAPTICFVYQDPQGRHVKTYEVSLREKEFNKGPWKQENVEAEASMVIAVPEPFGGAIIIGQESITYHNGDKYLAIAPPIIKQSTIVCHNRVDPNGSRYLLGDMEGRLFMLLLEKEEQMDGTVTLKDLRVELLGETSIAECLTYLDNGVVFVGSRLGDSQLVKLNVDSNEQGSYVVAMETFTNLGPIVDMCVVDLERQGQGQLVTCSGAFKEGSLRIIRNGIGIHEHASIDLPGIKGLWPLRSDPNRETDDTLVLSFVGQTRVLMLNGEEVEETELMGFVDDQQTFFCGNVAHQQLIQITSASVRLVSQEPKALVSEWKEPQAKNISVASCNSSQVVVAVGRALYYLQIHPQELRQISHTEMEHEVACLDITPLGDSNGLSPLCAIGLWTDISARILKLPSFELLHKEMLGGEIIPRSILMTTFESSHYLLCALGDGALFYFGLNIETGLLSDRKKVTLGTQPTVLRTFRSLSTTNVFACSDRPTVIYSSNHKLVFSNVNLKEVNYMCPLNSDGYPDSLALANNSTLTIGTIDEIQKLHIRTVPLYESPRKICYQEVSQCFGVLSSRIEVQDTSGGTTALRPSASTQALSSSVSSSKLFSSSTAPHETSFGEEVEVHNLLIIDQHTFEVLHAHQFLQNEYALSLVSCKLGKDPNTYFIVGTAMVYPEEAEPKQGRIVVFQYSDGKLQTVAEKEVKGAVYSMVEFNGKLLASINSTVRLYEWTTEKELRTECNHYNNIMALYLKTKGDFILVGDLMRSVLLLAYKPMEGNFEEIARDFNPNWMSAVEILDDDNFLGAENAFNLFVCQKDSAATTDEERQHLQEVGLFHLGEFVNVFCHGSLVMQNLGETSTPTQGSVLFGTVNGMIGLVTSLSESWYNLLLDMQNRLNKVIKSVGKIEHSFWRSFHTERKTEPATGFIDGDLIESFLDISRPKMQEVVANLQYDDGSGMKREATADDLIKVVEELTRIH
Chain of GSPT1 protein (P15170 whole entry): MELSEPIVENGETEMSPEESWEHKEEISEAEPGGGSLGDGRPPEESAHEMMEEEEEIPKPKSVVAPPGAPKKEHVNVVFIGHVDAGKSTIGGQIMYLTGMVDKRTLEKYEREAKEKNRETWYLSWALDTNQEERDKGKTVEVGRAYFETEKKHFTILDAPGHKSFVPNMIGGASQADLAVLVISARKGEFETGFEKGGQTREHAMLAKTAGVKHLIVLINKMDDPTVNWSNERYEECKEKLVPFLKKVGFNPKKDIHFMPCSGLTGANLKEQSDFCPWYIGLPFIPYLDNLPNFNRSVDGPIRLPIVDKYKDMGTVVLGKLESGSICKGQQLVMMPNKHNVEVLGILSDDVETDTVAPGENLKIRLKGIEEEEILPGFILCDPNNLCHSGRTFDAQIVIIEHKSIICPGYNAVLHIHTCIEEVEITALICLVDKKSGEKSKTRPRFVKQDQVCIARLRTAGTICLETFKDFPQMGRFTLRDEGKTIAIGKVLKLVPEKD
Chain of GSPT1 protein (Q96SW2 whole entry): as the sequence (Q96SW2 whole entry) above
Chain of GSPT1 protein (Q16531 whole entry partner): as the sequence (Q16531 whole entry partner) above
Chain of IKZF3 protein (Q9UKT9 whole entry): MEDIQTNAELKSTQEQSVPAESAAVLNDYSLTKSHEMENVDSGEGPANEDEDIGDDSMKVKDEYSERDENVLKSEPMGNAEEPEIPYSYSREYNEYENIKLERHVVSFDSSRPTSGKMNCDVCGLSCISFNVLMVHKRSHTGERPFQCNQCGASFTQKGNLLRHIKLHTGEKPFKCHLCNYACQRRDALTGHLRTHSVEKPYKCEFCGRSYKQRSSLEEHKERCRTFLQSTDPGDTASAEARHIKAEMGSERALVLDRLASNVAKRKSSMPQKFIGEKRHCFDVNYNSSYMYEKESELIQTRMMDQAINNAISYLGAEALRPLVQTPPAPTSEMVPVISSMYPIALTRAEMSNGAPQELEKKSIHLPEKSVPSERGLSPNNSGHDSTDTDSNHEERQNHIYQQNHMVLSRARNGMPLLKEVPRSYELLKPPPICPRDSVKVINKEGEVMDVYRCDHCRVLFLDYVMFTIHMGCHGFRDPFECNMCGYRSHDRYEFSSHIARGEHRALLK
Chain of IKZF3 protein (Q96SW2 whole entry): as the sequence (Q96SW2 whole entry) above
Chain of IKZF3 protein (Q16531 whole entry partner): as the sequence (Q16531 whole entry partner) above

O=C1CCC(N2Cc3cc(CN4CCN(Cc5ccc(-c6ccco6)o5)CC4)ccc3C2=O)C(=O)N1 (stereo not drawn) [GT-05695, 3-(5-((4-([2,2′-bifuran]-5-ylmethyl)piperazin-1-yl)methyl)-1-oxoisoindolin-2-yl)piperidine-2,6-dione]
pIC50 [1]: 6.60
residual substrate protein level, IKZF1 (IKZF1 protein): A (A represents a residual substrate protein level of <50%)
residual substrate protein level, IKZF3 (IKZF3 protein): A (A represents a residual substrate protein level of <50%)
residual substrate protein level, GSPT1 (GSPT1 protein): B (B represents a residual substrate protein level of >50%)
pIC50 (Mino cells): 6.30 to 7.00

CC1(C)CCC(C(=O)N2CC3CC2CN3Cc2ccc3c(c2)CN(C2CCC(=O)NC2=O)C3=O)=C(c2ccc(F)cc2)C1 (stereo not drawn) [GT-05403, 3-(5-((5-(4′-fluoro-5,5-dimethyl-3,4,5,6-tetrahydro-[1,1′-biphenyl]-2-carbonyl)-2,5-diazabicyclo[2.2.1]heptan-2-yl)methyl)-1-oxoisoindolin-2-yl)piperidine-2,6-dione]
pIC50 [1]: 6.26
pIC50 (MM.1S cells): 8.00 to 8.30

O=C1CCC(N2Cc3cc(CN4CCN(Cc5cccc(-c6ccco6)c5)CC4)ccc3C2=O)C(=O)N1 (stereo not drawn) [GT-05692, 3-(5-((4-(3-(furan-2-yl)benzyl)piperazin-1-yl)methyl)-1-oxoisoindolin-2-yl)piperidine-2,6-dione]
pIC50 [1]: 6.33
pIC50 (Mino cells): 6.30 to 7.00

O=C1CCC(N2Cc3cc(CN4CCN(Cc5cccc(-c6ccc(Cl)cn6)c5)CC4)ccc3C2=O)C(=O)N1 (stereo not drawn) [GT-05596, 3-(5-((4-(3-(5-chloropyridin-2-yl)benzyl)piperazin-1-yl)methyl)-1-oxoisoindolin-2-yl)piperidine-2,6-dione]
pIC50 [1]: 5.87
residual substrate protein level, IKZF1 (IKZF1 protein): A (A represents a residual substrate protein level of <50%)
concentration at which significant degradation effects on IKZF1 protein are exhibited (FIG. 1) (IKZF1 protein; [2]): < 3 nM
residual substrate protein level, IKZF3 (IKZF3 protein): A (A represents a residual substrate protein level of <50%)
concentration at which significant degradation effects on IKZF3 protein are exhibited (FIG. 1) (IKZF3 protein; [2]): < 3 nM
residual substrate protein level, GSPT1 (GSPT1 protein): B (B represents a residual substrate protein level of >50%)
concentration at which significant degradation effects on GSPT1 protein are exhibited (FIG. 1) (GSPT1 protein; [2]): < 3 nM
pIC50 (Mino cells): 7.30 to 8.00

O=C1CCC(N2C(=O)c3ccc(CN4CCN(Cc5ccc(-c6ccncc6)nc5)CC4)cc3C2=O)C(=O)N1 (stereo not drawn) [GT-05634, 5-((4-([2,4′-bipyridin]-5-ylmethyl)piperazin-1-yl)methyl)-2-(2,6-dioxopiperidin-3-yl)isoindoline-1,3-dione]
residual substrate protein level, IKZF1 (IKZF1 protein): A (A represents a residual substrate protein level of <50%)
residual substrate protein level, IKZF3 (IKZF3 protein): A (A represents a residual substrate protein level of <50%)
residual substrate protein level, GSPT1 (GSPT1 protein): B (B represents a residual substrate protein level of >50%)
pIC50 (Mino cells): 6.00 to 6.30

CC1(C)CCC(CN2CC3(C2)CN(Cc2ccc4c(c2)CN(C2CCC(=O)NC2=O)C4=O)C3)=C(c2ccc(Cl)cc2)C1 (stereo not drawn) [GT-05685, 3-(5-((6-((4′-chloro-5,5-dimethyl-3,4,5,6-tetrahydro-[1,1′-biphenyl]-2-yl)methyl)-2,6-diazaspiro[3.3]heptan-2-yl)methyl)-1-oxoisoindolin-2-yl)piperidine-2,6-dione]
pIC50 [1]: 5.94
pIC50 (Mino cells): 6.30 to 7.00

O=C1CCC(N2Cc3cc(CN4CCN(Cc5ccc(-c6ccc[nH]6)cc5)CC4)ccc3C2=O)C(=O)N1 (stereo not drawn) [GT-05734, 3-(5-((4-(4-(1H-pyrrol-2-yl)benzyl)piperazin-1-yl)methyl)-1-oxoisoindolin-2-yl)piperidine-2,6-dione]
pIC50 [1]: 6.96
residual substrate protein level, IKZF1 (IKZF1 protein): B (B represents a residual substrate protein level of >50%)
residual substrate protein level, IKZF3 (IKZF3 protein): A (A represents a residual substrate protein level of <50%)
residual substrate protein level, GSPT1 (GSPT1 protein): B (B represents a residual substrate protein level of >50%)
pIC50 (Mino cells): 6.30 to 7.00

O=C1CCC(N2C(=O)c3ccc(CN4CCN(Cc5cnc(-c6ccccc6)cn5)CC4)cc3C2=O)C(=O)N1 (stereo not drawn) [GT-05545, 2-(2,6-dioxopiperidin-3-yl)-5-((4-((5-phenylpyrazin-2-yl)methyl)piperazin-1-yl)methyl)isoindoline-1,3-dione]
residual substrate protein level, IKZF1 (IKZF1 protein): B (B represents a residual substrate protein level of >50%)
residual substrate protein level, IKZF3 (IKZF3 protein): A (A represents a residual substrate protein level of <50%)
residual substrate protein level, GSPT1 (GSPT1 protein): B (B represents a residual substrate protein level of >50%)
pIC50 (Mino cells): 6.00 to 6.30

O=C1CCC(N2Cc3cc(CN4CCN(Cc5cccc(-c6cccs6)c5)CC4)ccc3C2=O)C(=O)N1 (stereo not drawn) [GT-05597, 3-(1-oxo-5-((4-(3-(thiophen-2-yl)benzyl)piperazin-1-yl)methyl)isoindolin-2-yl)piperidine-2,6-dione]
pIC50 [1]: 5.85
pIC50 (Mino cells): 6.30 to 7.00

O=C1CCC(N2Cc3cc(CN4CCN(Cc5ccc(-c6cccs6)o5)CC4)ccc3C2=O)C(=O)N1 (stereo not drawn) [GT-05627, 3-(1-oxo-5-((4-((5-(thiophen-2-yl)furan-2-yl)methyl)piperazin-1-yl)methyl)isoindolin-2-yl)piperidine-2,6-dione]
pIC50 [1]: 6.59
pIC50 (Mino cells): 6.30 to 7.00

O=C1CCC(N2Cc3c(ccc(CN4C5CC4CN(Cc4ccccc4-c4ccc(Cl)cc4)C5)c3F)C2=O)C(=O)N1 (stereo not drawn) [GT-05608, 3-(5-((3-((4′-chloro-[1,1′-biphenyl]-2-yl)methyl)-3,6-diazabicyclo[3.1.1]heptan-6-yl)methyl)-4-fluoro-1-oxoisoindolin-2-yl)piperidine-2,6-dione]
pIC50 [1]: 6.10
residual substrate protein level, IKZF1 (IKZF1 protein): B (B represents a residual substrate protein level of >50%)
residual substrate protein level, IKZF3 (IKZF3 protein): A (A represents a residual substrate protein level of <50%)
residual substrate protein level, GSPT1 (GSPT1 protein): A (A represents a residual substrate protein level of <50%)
pIC50 (Mino cells): 6.00 to 6.30

O=C1CCC(N2Cc3cc(CN4CCN(Cc5cccc(-c6ccc(Cl)cc6)c5)CC4)ccc3C2=O)C(=O)N1 (stereo not drawn) [GT-05629, 3-(5-((4-((4′-chloro-[1,1′-biphenyl]-3-yl)methyl)piperazin-1-yl)methyl)-1-oxoisoindolin-2-yl)piperidine-2,6-dione]
pIC50 [1]: 5.89
pIC50 (Mino cells): 6.30 to 7.00

O=C1CCC(N2Cc3cc(CN4C5CCC4CN(Cc4ccccc4-c4ccc(Cl)cc4)C5)ccc3C2=O)C(=O)N1 (stereo not drawn) [GT-05710, 3-(5-((3-((4′-chloro-[1,1′-biphenyl]-2-yl)methyl)-3,8-diazabicyclo[3.2.1]octan-8-yl)methyl)-1-oxoisoindolin-2-yl)piperidine-2,6-dione]
pIC50 [1]: 5.96
residual substrate protein level, IKZF1 (IKZF1 protein): B (B represents a residual substrate protein level of >50%)
residual substrate protein level, IKZF3 (IKZF3 protein): A (A represents a residual substrate protein level of <50%)
residual substrate protein level, GSPT1 (GSPT1 protein): A (A represents a residual substrate protein level of <50%)

CC1(C)CCC(C(=O)N2CCC3(CC2)CN(Cc2ccc4c(c2)CN(C2CCC(=O)NC2=O)C4=O)C3)=C(c2ccc(F)cc2)C1 (stereo not drawn) [GT-05404, 3-(5-((7-(4′-fluoro-5,5-dimethyl-3,4,5,6-tetrahydro-[1,1′-biphenyl]-2-carbonyl)-2,7-diazaspiro[3.5]nonan-2-yl)methyl)-1-oxoisoindolin-2-yl)piperidine-2,6-dione]
pIC50 [1]: 6.31
residual substrate protein level, IKZF1 (IKZF1 protein): B (B represents a residual substrate protein level of >50%)
residual substrate protein level, IKZF3 (IKZF3 protein): A (A represents a residual substrate protein level of <50%)
residual substrate protein level, GSPT1 (GSPT1 protein): B (B represents a residual substrate protein level of >50%)

CC1(C)CCC(C(=O)N2CCCN(Cc3ccc4c(c3)CN(C3CCC(=O)NC3=O)C4=O)CC2)=C(c2ccc(Cl)cc2)C1 (stereo not drawn) [GT-05680, 3-(5-((4-(4′-chloro-5,5-dimethyl-3,4,5,6-tetrahydro-[1,1′-biphenyl]-2-carbonyl)-1,4-diazepan-1-yl)methyl)-1-oxoisoindolin-2-yl)piperidine-2,6-dione]
pIC50 [1]: 6.01
residual substrate protein level, IKZF1 (IKZF1 protein): B (B represents a residual substrate protein level of >50%)
residual substrate protein level, IKZF3 (IKZF3 protein): A (A represents a residual substrate protein level of <50%)
residual substrate protein level, GSPT1 (GSPT1 protein): B (B represents a residual substrate protein level of >50%)

O=C1CCC(N2Cc3cc(C(=O)N4C5CC4CN(C(=O)C4=C(c6ccc(F)cc6)CCCC4)C5)ccc3C2=O)C(=O)N1 (stereo not drawn) [GT-05449, 3-(5-(3-(4′-fluoro-3,4,5,6-tetrahydro-[1,1′-biphenyl]-2-carbonyl)-3,6-diazabicyclo[3.1.1]heptane-6-carbonyl)-1-oxoisoindolin-2-yl)piperidine-2,6-dione]
pIC50 [1]: 5.77
residual substrate protein level, IKZF1 (IKZF1 protein): B (B represents a residual substrate protein level of >50%)
residual substrate protein level, IKZF3 (IKZF3 protein): B (B represents a residual substrate protein level of >50%)
residual substrate protein level, GSPT1 (GSPT1 protein): A (A represents a residual substrate protein level of <50%)

O=C1CCC(N2Cc3cc(CN4C5CC4CN(Cc4ccccc4-c4ccc(Cl)cc4)C5)ccc3C2=O)C(=O)N1 (stereo not drawn) [GT-05607, 3-(5-((3-((4′-chloro-[1,1′-biphenyl]-2-yl)methyl)-3,6-diazabicyclo[3.1.1]heptan-6-yl)methyl)-1-oxoisoindolin-2-yl)piperidine-2,6-dione]
pIC50 [1]: 5.94 and 6.06
residual substrate protein level, IKZF1 (IKZF1 protein): B (B represents a residual substrate protein level of >50%)
residual substrate protein level, IKZF3 (IKZF3 protein): B (B represents a residual substrate protein level of >50%)
residual substrate protein level, GSPT1 (GSPT1 protein): A (A represents a residual substrate protein level of <50%)
